Experiments:
Experiment in all cases: KINOMEscan competition binding
Details in all cases: compound 10.0 µM
ADCK4 (human) = ADCK4 (human) (UniProt Q96D53)
CAMK2B (human) = CAMK2B (human) (UniProt Q13554)
CDK17 (human) = CDK17 (human) (UniProt Q00537)
CDKL2 (human) = CDKL2 (human) (UniProt Q92772)
CHEK1 (human) = CHEK1 (human) (UniProt O14757)
CSNK1A1L (human) = CSNK1A1L (human) (UniProt Q8N752)
CSNK2A1 (human) = CSNK2A1 (human) (UniProt P68400)
DAPK1 (human) = DAPK1 (human) (UniProt P53355)
DCLK2 (human) = DCLK2 (human) (UniProt Q8N568)
DCLK3 (human) = DCLK3 (human) (UniProt Q9C098)
EIF2AK1 (human) = EIF2AK1 (human) (UniProt Q9BQI3)
EPHA3 (human) = EPHA3 (human) (UniProt P29320)
EPHB1 (human) = EPHB1 (human) (UniProt P54762)
EPHB3 (human) = EPHB3 (human) (UniProt P54753)
GRK4 (human) = GRK4 (human) (UniProt P32298)
HIPK2 (human) = HIPK2 (human) (UniProt Q9H2X6)
HIPK4 (human) = HIPK4 (human) (UniProt Q8NE63)
ICK (human) = ICK (human) (UniProt Q9UPZ9)
LYN (human) = LYN (human) (UniProt P07948)
MAP2K4 (human) = MAP2K4 (human) (UniProt P45985)
MAP3K1 (human) = MAP3K1 (human) (UniProt Q13233)
MAP3K15 (human) = MAP3K15 (human) (UniProt Q6ZN16)
MAPK4 (human) = MAPK4 (human) (UniProt P31152)
Chain of MAPK4 (human) (P31152 whole entry, looked up): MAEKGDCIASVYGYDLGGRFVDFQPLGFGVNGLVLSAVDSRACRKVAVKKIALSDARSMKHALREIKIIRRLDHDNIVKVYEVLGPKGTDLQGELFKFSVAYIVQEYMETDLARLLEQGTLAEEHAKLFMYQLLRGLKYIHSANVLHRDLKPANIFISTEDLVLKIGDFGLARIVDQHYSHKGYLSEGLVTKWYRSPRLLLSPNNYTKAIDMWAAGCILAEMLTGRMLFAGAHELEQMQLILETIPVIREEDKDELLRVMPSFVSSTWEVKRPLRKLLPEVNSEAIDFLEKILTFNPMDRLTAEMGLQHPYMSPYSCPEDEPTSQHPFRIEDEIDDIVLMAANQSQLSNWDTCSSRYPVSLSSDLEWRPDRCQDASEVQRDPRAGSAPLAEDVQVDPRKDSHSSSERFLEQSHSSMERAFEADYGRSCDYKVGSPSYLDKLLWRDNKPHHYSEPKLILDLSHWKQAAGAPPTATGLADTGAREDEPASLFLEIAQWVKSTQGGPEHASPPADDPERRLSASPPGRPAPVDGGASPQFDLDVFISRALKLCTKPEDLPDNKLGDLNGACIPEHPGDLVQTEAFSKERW

MAPK7 (human) = MAPK7 (human) (UniProt Q13164)
MARK4 (human) = MARK4 (human) (UniProt Q96L34)
MAST1 (human) = MAST1 (human) (UniProt Q9Y2H9)
Chain of MAST1 (human) (Q9Y2H9 whole entry, looked up): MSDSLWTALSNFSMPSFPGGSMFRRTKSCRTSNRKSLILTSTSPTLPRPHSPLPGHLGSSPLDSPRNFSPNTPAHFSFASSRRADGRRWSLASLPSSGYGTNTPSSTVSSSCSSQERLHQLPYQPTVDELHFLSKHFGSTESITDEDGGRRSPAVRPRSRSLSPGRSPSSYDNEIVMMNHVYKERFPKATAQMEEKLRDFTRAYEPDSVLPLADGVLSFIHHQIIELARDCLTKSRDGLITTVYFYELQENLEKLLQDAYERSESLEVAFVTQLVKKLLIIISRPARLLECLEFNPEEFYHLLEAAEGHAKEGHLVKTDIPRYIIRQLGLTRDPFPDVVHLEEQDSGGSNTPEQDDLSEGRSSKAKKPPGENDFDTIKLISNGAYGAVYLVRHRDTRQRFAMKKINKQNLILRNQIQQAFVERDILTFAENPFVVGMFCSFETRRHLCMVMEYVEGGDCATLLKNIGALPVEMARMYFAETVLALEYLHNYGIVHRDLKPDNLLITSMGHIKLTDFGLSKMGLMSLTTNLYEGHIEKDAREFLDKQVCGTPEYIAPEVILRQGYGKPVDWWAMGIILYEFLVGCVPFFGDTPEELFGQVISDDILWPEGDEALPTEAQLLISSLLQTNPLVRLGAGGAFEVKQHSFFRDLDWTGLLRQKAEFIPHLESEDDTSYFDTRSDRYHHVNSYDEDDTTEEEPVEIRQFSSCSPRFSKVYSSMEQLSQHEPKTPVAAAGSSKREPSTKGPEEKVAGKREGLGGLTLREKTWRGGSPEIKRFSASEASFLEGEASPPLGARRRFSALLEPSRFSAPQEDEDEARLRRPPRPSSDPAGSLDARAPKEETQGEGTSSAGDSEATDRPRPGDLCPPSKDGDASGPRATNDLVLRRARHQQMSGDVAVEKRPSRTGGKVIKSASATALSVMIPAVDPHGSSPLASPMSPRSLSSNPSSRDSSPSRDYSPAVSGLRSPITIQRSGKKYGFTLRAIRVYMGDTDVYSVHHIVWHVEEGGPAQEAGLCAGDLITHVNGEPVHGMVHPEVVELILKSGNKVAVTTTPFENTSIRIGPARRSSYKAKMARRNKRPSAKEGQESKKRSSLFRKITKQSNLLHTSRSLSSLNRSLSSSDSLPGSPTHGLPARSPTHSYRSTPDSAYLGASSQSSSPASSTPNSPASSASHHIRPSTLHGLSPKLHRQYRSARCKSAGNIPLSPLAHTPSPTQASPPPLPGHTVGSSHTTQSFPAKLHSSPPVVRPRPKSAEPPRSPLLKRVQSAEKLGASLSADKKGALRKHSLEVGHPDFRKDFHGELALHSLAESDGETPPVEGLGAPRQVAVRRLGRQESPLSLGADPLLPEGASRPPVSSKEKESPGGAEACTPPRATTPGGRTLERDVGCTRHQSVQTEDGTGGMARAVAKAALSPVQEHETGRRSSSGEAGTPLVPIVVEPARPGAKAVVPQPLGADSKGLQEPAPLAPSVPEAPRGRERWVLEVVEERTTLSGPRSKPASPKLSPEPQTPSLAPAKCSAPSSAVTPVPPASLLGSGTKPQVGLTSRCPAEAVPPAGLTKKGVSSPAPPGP

MYO3A (human) = MYO3A (human) (UniProt Q8NEV4)
NEK5 (human) = NEK5 (human) (UniProt Q6P3R8)
NEK9 (human) = NEK9 (human) (UniProt Q8TD19)
PAK2 (human) = PAK2 (human) (UniProt Q13177)
PAK3 (human) = PAK3 (human) (UniProt O75914)
PIK3CD (human) = PIK3CD (human) (UniProt O00329)
PIM2 (human) = PIM2 (human) (UniProt Q9P1W9)
Chain of PIM2 (human) (Q9P1W9 whole entry, looked up): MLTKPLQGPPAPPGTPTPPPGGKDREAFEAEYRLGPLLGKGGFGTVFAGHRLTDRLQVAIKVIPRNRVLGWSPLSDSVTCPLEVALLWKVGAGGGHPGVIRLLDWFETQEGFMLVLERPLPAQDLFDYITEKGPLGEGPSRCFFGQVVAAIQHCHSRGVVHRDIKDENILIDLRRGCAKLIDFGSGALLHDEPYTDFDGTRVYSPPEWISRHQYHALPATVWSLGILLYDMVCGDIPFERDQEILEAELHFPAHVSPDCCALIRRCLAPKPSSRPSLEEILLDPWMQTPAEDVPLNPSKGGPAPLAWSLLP

PIP4K2C (human) = PIP4K2C (human) (UniProt Q8TBX8)
PRKCE (human) = PRKCE (human) (UniProt Q02156)
Chain of PRKCE (human) (Q02156 whole entry, looked up): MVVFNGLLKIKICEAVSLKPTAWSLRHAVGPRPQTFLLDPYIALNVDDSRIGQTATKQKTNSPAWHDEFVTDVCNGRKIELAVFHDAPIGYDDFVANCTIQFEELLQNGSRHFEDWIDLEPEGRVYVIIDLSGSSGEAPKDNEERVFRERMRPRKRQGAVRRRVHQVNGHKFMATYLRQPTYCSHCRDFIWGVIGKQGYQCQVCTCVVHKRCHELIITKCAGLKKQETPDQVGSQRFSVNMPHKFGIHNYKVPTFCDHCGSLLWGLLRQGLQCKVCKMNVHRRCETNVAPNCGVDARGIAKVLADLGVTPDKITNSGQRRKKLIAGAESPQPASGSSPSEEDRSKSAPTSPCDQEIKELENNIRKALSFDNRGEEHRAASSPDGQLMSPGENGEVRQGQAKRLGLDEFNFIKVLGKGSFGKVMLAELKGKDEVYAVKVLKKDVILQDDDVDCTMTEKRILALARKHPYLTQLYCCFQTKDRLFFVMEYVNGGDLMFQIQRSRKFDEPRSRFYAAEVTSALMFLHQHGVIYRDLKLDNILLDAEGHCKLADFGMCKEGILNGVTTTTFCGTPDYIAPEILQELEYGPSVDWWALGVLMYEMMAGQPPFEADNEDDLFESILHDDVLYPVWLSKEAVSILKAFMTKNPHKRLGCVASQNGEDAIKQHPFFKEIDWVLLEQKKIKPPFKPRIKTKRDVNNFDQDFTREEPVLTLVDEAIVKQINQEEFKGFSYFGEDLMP

RPS6KA6 KD2 (human) = RPS6KA6 KD2 (human) (UniProt Q9UK32)
SRPK2 (human) = SRPK2 (human) (UniProt P78362)
TAOK1 (human) = TAOK1 (human) (UniProt Q7L7X3)
TAOK2 (human) = TAOK2 (human) (UniProt Q9UL54)
Chain of TAOK2 (human) (Q9UL54 whole entry, looked up): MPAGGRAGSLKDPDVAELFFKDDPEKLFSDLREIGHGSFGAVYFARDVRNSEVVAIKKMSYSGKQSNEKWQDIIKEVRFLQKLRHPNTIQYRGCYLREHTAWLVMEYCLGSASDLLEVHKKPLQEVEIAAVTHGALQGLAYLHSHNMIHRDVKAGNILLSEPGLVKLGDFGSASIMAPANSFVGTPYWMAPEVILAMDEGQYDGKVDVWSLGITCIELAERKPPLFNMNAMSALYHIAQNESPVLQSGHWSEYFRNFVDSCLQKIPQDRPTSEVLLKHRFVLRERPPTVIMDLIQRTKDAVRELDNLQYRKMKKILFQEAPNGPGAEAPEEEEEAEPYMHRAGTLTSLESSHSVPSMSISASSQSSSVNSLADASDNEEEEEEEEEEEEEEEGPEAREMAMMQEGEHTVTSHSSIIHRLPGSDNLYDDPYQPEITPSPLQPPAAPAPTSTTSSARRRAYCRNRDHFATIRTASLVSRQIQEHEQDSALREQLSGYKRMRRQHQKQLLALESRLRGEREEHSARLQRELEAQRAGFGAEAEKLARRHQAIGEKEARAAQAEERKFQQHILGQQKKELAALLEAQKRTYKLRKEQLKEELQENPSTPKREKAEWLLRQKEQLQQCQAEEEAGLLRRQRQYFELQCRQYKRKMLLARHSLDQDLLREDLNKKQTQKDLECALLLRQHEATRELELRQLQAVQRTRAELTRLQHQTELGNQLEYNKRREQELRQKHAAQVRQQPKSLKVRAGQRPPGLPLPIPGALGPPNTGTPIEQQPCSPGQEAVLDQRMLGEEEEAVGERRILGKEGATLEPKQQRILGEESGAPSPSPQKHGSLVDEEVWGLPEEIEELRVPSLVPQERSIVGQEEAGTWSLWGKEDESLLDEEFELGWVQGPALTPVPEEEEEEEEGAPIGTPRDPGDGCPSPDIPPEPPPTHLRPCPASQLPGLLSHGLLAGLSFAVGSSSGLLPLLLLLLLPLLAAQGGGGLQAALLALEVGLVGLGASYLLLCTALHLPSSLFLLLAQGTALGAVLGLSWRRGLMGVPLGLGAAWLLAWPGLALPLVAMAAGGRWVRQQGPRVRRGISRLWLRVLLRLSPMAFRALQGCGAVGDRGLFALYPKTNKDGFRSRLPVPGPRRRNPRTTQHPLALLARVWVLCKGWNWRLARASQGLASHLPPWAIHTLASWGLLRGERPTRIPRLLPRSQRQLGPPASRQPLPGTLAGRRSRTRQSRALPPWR

TRPM6 (human) = TRPM6 (human) (UniProt Q9BX84)

Chain of CHEK1 (human) (O14757 whole entry, looked up): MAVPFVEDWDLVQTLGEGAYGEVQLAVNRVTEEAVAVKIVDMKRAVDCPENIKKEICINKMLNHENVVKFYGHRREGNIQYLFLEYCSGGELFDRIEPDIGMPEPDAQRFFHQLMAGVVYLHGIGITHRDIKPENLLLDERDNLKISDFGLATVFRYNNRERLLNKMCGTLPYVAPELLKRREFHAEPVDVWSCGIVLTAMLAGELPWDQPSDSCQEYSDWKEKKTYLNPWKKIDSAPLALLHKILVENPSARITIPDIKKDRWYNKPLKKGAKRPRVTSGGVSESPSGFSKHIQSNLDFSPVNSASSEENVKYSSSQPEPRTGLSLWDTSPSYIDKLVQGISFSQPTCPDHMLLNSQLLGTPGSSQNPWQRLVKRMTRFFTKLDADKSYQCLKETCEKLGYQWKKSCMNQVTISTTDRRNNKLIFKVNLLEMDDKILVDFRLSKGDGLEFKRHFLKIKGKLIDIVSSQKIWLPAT

N#C/C(=C1/Nc2ccccc2S1)c1ccnc(NCCc2cccnc2)n1
kinase still bound, per cent of control (ADCK4 (human)): 45%
kinase still bound, per cent of control (CAMK2B (human)): 49%
kinase still bound, per cent of control (CDK17 (human)): 98%
kinase still bound, per cent of control (CDKL2 (human)): 98%
kinase still bound, per cent of control (CHEK1 (human)): 100%
kinase still bound, per cent of control (CSNK1A1L (human)): 67%
kinase still bound, per cent of control (CSNK2A1 (human)): 0.4%
kinase still bound, per cent of control (DAPK1 (human)): 32%
kinase still bound, per cent of control (DCLK2 (human)): 100%
kinase still bound, per cent of control (DCLK3 (human)): 100%
kinase still bound, per cent of control (EIF2AK1 (human)): 100%
kinase still bound, per cent of control (EPHA3 (human)): 73%
kinase still bound, per cent of control (EPHB1 (human)): 100%
kinase still bound, per cent of control (EPHB3 (human)): 100%
kinase still bound, per cent of control (GRK4 (human)): 32%
kinase still bound, per cent of control (HIPK2 (human)): 1.4%
kinase still bound, per cent of control (HIPK4 (human)): 42%
kinase still bound, per cent of control (ICK (human)): 64%
kinase still bound, per cent of control (LYN (human)): 100%
kinase still bound, per cent of control (MAP2K4 (human)): 1.1%
kinase still bound, per cent of control (MAP3K1 (human)): 65%
kinase still bound, per cent of control (MAP3K15 (human)): 100%
kinase still bound, per cent of control (MAPK4 (human)): 96%
kinase still bound, per cent of control (MAPK7 (human)): 100%
kinase still bound, per cent of control (MARK4 (human)): 100%
kinase still bound, per cent of control (MAST1 (human)): 100%
kinase still bound, per cent of control (MYO3A (human)): 80%
kinase still bound, per cent of control (NEK5 (human)): 100%
kinase still bound, per cent of control (NEK9 (human)): 90%
kinase still bound, per cent of control (PAK2 (human)): 34%
kinase still bound, per cent of control (PAK3 (human)): 100%
kinase still bound, per cent of control (PIK3CD (human)): 78%
kinase still bound, per cent of control (PIM2 (human)): 20%
kinase still bound, per cent of control (PIP4K2C (human)): 3.7%
kinase still bound, per cent of control (PRKCE (human)): 92%
kinase still bound, per cent of control (RPS6KA6 KD2 (human)): 52%
kinase still bound, per cent of control (SRPK2 (human)): 86%
kinase still bound, per cent of control (TAOK1 (human)): 38%
kinase still bound, per cent of control (TAOK2 (human)): 45%
kinase still bound, per cent of control (TRPM6 (human)): 100%

COc1cc2c(Nc3ccc(NC(=O)c4ccccc4)cc3)ncnc2cc1OCCCN1CCOCC1
kinase still bound, per cent of control (ADCK4 (human)): 66%
kinase still bound, per cent of control (CAMK2B (human)): 78%
kinase still bound, per cent of control (CDK17 (human)): 94%
kinase still bound, per cent of control (CDKL2 (human)): 12%
kinase still bound, per cent of control (CHEK1 (human)): 100%
kinase still bound, per cent of control (CSNK1A1L (human)): 99%
kinase still bound, per cent of control (CSNK2A1 (human)): 87%
kinase still bound, per cent of control (DAPK1 (human)): 84%
kinase still bound, per cent of control (DCLK2 (human)): 100%
kinase still bound, per cent of control (DCLK3 (human)): 96%
kinase still bound, per cent of control (EIF2AK1 (human)): 20%
kinase still bound, per cent of control (EPHA3 (human)): 60%
kinase still bound, per cent of control (EPHB1 (human)): 100%
kinase still bound, per cent of control (EPHB3 (human)): 100%
kinase still bound, per cent of control (GRK4 (human)): 100%
kinase still bound, per cent of control (HIPK2 (human)): 50%
kinase still bound, per cent of control (HIPK4 (human)): 4.9%
kinase still bound, per cent of control (ICK (human)): 100%
kinase still bound, per cent of control (LYN (human)): 7.2%
kinase still bound, per cent of control (MAP2K4 (human)): 100%
kinase still bound, per cent of control (MAP3K1 (human)): 92%
kinase still bound, per cent of control (MAP3K15 (human)): 100%
kinase still bound, per cent of control (MAPK4 (human)): 100%
kinase still bound, per cent of control (MAPK7 (human)): 89%
kinase still bound, per cent of control (MARK4 (human)): 100%
kinase still bound, per cent of control (MAST1 (human)): 100%
kinase still bound, per cent of control (MYO3A (human)): 79%
kinase still bound, per cent of control (NEK5 (human)): 100%
kinase still bound, per cent of control (NEK9 (human)): 100%
kinase still bound, per cent of control (PAK2 (human)): 89%
kinase still bound, per cent of control (PAK3 (human)): 87%
kinase still bound, per cent of control (PIK3CD (human)): 100%
kinase still bound, per cent of control (PIM2 (human)): 100%
kinase still bound, per cent of control (PIP4K2C (human)): 53%
kinase still bound, per cent of control (PRKCE (human)): 100%
kinase still bound, per cent of control (RPS6KA6 KD2 (human)): 71%
kinase still bound, per cent of control (SRPK2 (human)): 86%
kinase still bound, per cent of control (TAOK1 (human)): 95%
kinase still bound, per cent of control (TAOK2 (human)): 94%
kinase still bound, per cent of control (TRPM6 (human)): 98%

Source: the kinase profiling compilation of Christmann-Franck et al. (2016)
